# Experimental data: patent publication US20200264182A1, “METHOD FOR DETECTING PROSTATE CANCER” (J-OIL MILLS, INC., priority 2017, published 2020)
# How the values were obtained:
# [1] = FAC binding constant (Table 5 entry); conditions: Table 5: sugar chain having no fucose; at 25° C.
# Method: (§1) Details of the FAC method are described in Patent Document 2 filed by some of the present applicants, for example.
# (§2) Binding constants (at 25° C.) of PhoSL, SRL, NSL and LSL belonging to the fucose α1→6 specific lectin for various sugar chains are shown in Tables 2 to 5.
# [2] = test system: serum fucosylated PSA; assay: Sandwich ELISA, anti-PSA antibody and biotin-labeled lectin; type: binding, human; conditions: for Δ (=A − B): reaction value of Prostate cancer 4 minus Healthy 1; for lectin reaction value B of Healthy 1: serum of Healthy 1; for lectin reaction value A of Prostate cancer 4: serum of Prostate cancer 4, GS 6 (3 + 3)
# Method: The anti-PSA antibody from which sugar chains had been removed was diluted to 5 μg/mL with PBS. 25 μL of this diluted solution was added to each well of an ELISA plate and allowed to stand at 37° C. for 12 hours, and then the additive solution was discarded.
# 150 μL of PBS containing 0.05% Tween 20 (product name: polyoxyethylene sorbitan monolaurate, from Nacalai Tesque, Inc.) was added to each well, and then the additive solution was discarded. This manipulation was repeated three times in total.
# 25 μL of 1% BSA/PBS was added to each well and allowed to stand at 37° C. for 1 hour, and then the additive solution was discarded.
# 150 μL of PBS containing 0.05% Tween 20 was added to each well, and then the additive solution was discarded. This manipulation was repeated three times in total.
# To graph a calibration curve, 25 μL of the fucosylated PSA reference standard diluted with 1% BSA/PBS to a concentration of 0 to 200 ng/mL was added to each well and allowed to stand at room temperature for 1 hour, and then the additive solution was discarded. In addition, to detect the fucosylated PSA in the serum of the subject by the lectin, 25 μL of serum of “Healthy 1” and “Prostate cancer 4” 2-fold diluted with PBS was added to each well and allowed to stand at room temperature for 1 hour, and then the additive solution was discarded.
# In Reference Example 1, 25 μL of a biotin-labeled PhoSL diluted to 0.1 μg/mL with 0.1% BSA/PBS (pH 7.4) was added to each well and allowed to stand at 4° C. for 30 minutes, and then the additive solution was discarded. In Example 1, 25 μL of a biotin-labeled PhoSL diluted to 0.1 μg/mL with 0.1% BSA/10-fold diluted PBS+glycine-NaOH (pH 9.6) was added to each well and allowed to stand at 4° C. for 30 minutes, and then the additive solution was discarded.
# 25 μL of a horseradish peroxidase (HRP)-labeled streptavidin solution (from Vector Laboratories, Inc., concentration: 0.4 μg/mL, in 1% BSA/PBS) was added to each well and allowed to stand at room temperature for 30 minutes, and then the additive solution was discarded.
# 25 μL of chromogenic substrate for HRP (product name: TMB, from Kirkegaard & Perry Laboratories, Inc.) was added to each well and allowed to stand at room temperature for 10 minutes.
# 25 μL of 1M phosphoric acid was added to terminate the reaction.
# Absorbance (Ab) at 450 nm and 630 nm was measured using a plate reader, and a measurement (Ab450-630) was obtained.
# A calibration curve was graphed by plotting signals (reaction values, Ab450-630) of the fucosylated PSA reference standard with the biotin-labeled PhoSL. A Signal (Ab450-630) of the biotin-labeled PhoSL corresponding to the fucosylated PSA concentration of 10 ng/mL was defined as 10 U/mL.
# The signals of biotin-labeled PhoSL (Ab450-630) for the serum fucosylated PSA in the subject samples A were assigned to the calibration curve to calculate reaction values (unit: U/mL).
# The PhoSL reaction values for the subject samples A were measured by the same operation as in Example 1. From the PhoSL reaction values, an average value and a median value were determined. Furthermore, a standard cutoff value (89.7 U/mL) was used to determine a detection rate (positive rate) of the prostate cancer patients, and a false detection rate (false positive rate) of the healthy persons.
# Comparative Example 2 in Table 9 indicates results of detecting the serum fucosylated PSA using AAL (AAL reaction values) in the subject samples A. Specifically, in Reference Example 1, AAL reaction values were measured in the same manner as in Reference Example 1 except that the biotin-labeled PhoSL was replaced with a biotin-labeled AAL. A standard cut-off value for the AAL reaction values was 894.8 U/mL. As in Example 2, an average value, a median value, a positive rate and a false positive rate were determined from the AAL reaction values.
# [3] = FAC binding constant; conditions: at 25° C.
# Method: as §1, §2
# [4] = sugar chain having fucose other than α1→6 fucose
substance,measurement,setting,value
"NSL: fucose α1→6 specific lectin that can be extracted from Naematoloma sublateritium, SEQ ID No. 4 or 5",Binding constant for sugar chain No. 728,[1],<1000 M⁻¹
same,Δ (=A − B),[2]; pH in lectin reaction 7.4,222 U/mL
same,Δ (=A − B),[2]; pH in lectin reaction 9.6,240.3 U/mL
same,lectin reaction value B of Healthy 1,[2]; pH in lectin reaction 7.4,177.7 U/mL
same,lectin reaction value B of Healthy 1,[2]; pH in lectin reaction 9.6,42.3 U/mL
same,lectin reaction value A of Prostate cancer 4,[2]; pH in lectin reaction 7.4,399.7 U/mL
same,lectin reaction value A of Prostate cancer 4,[2]; pH in lectin reaction 9.6,282.6 U/mL
same,Binding constant for sugar chain No. 728,[3]; Table 3: sugar chain having fucose other than α1→6 fucose,<1000 M⁻¹
same,Binding constant for sugar chain No. 419,[3]; [4],<1000 M⁻¹
same,Binding constant for sugar chain No. 420,[3]; [4],<1000 M⁻¹
same,Binding constant for sugar chain No. 718,[3]; [4],<1000 M⁻¹
same,Binding constant for sugar chain No. 719,[3]; [4],<1000 M⁻¹
same,Binding constant for sugar chain No. 720,[3]; [4],<1000 M⁻¹
same,Binding constant for sugar chain No. 721,[3]; [4],<1000 M⁻¹
same,Binding constant for sugar chain No. 722,[3]; [4],<1000 M⁻¹
same,Binding constant for sugar chain No. 723,[3]; [4],<1000 M⁻¹
same,Binding constant for sugar chain No. 726,[3]; [4],<1000 M⁻¹
same,Binding constant for sugar chain No. 727,[3]; [4],<1000 M⁻¹
same,Binding constant for sugar chain No. 729,[3]; [4],<1000 M⁻¹
same,Binding constant for sugar chain No. 730,[3]; [4],<1000 M⁻¹
same,Binding constant for sugar chain No. 731,[3]; [4],<1000 M⁻¹
same,Binding constant for sugar chain No. 739,[3]; [4],<1000 M⁻¹
same,Binding constant for sugar chain No. 909,[3]; [4],<1000 M⁻¹
same,Binding constant for sugar chain No. 910,[3]; [4],<1000 M⁻¹
same,Binding constant for sugar chain No. 931,[3]; [4],<1000 M⁻¹
same,Binding constant for sugar chain No. 932,[3]; [4],<1000 M⁻¹
same,Binding constant for sugar chain No. 933,[3]; [4],<1000 M⁻¹
same,Binding constant for sugar chain No. 001,[3]; sugar chain having no fucose,<1000 M⁻¹
same,Binding constant for sugar chain No. 002,[3]; sugar chain having no fucose,<1000 M⁻¹
same,Binding constant for sugar chain No. 003,[3]; sugar chain having no fucose,<1000 M⁻¹
same,Binding constant for sugar chain No. 004,[3]; sugar chain having no fucose,<1000 M⁻¹
same,Binding constant for sugar chain No. 005,[3]; sugar chain having no fucose,<1000 M⁻¹
same,Binding constant for sugar chain No. 006,[3]; sugar chain having no fucose,<1000 M⁻¹
same,Binding constant for sugar chain No. 007,[3]; sugar chain having no fucose,<1000 M⁻¹
same,Binding constant for sugar chain No. 008,[3]; sugar chain having no fucose,<1000 M⁻¹
same,Binding constant for sugar chain No. 009,[3]; sugar chain having no fucose,<1000 M⁻¹
same,Binding constant for sugar chain No. 010,[3]; sugar chain having no fucose,<1000 M⁻¹
same,Binding constant for sugar chain No. 011,[3]; sugar chain having no fucose,<1000 M⁻¹
same,Binding constant for sugar chain No. 012,[3]; sugar chain having no fucose,<1000 M⁻¹
same,Binding constant for sugar chain No. 013,[3]; sugar chain having no fucose,<1000 M⁻¹
same,Binding constant for sugar chain No. 014,[3]; sugar chain having no fucose,<1000 M⁻¹
same,Binding constant for sugar chain No. 101,[3]; sugar chain having no fucose,<1000 M⁻¹
same,Binding constant for sugar chain No. 103,[3]; sugar chain having no fucose,<1000 M⁻¹
same,Binding constant for sugar chain No. 104,[3]; sugar chain having no fucose,<1000 M⁻¹
same,Binding constant for sugar chain No. 105,[3]; sugar chain having no fucose,<1000 M⁻¹
same,Binding constant for sugar chain No. 107,[3]; sugar chain having no fucose,<1000 M⁻¹
same,Binding constant for sugar chain No. 108,[3]; sugar chain having no fucose,<1000 M⁻¹
same,Binding constant for sugar chain No. 301,[3]; sugar chain having no fucose,<1000 M⁻¹
same,Binding constant for sugar chain No. 304,[3]; sugar chain having no fucose,<1000 M⁻¹
same,Binding constant for sugar chain No. 305,[3]; sugar chain having no fucose,<1000 M⁻¹
same,Binding constant for sugar chain No. 307,[3]; sugar chain having no fucose,<1000 M⁻¹
same,Binding constant for sugar chain No. 308,[3]; sugar chain having no fucose,<1000 M⁻¹
